According to patent publication US6716819B2, “Use of xylitol to reduce ionic strength and activate endogenous antimicrobials for prevention and treatment of infections” (University of Iowa Research Foundation, priority 2000, dated 2004):

Legend:
CF epithelia = test: Transepithelial electrical properties in Ussing chambers; type: cell-based, human; details: 10 μM apical, n=9
Excerpt: (§1) For measurement of transepithelial electrical properties, a few epithelia from each culture preparation were mounted in Ussing chambers and studied as previously described (Zabner, J., J. J. Smith, P. H. Karp, J. H. Widdicombe, and M. J. Welsh. 1998. Loss of CFTR chloride channels alters salt absorption by cystic fibrosis airway epithelia in vitro. Mol. Cell. 2:397-403). Transepithelial resistance was 588±33 Ω·cm^2 (n=9) for non-CF and 493±24 Ω·cm^2 (n=9) for CF epithelia. The decrease in current after apical addition of 10 μM amiloride was 26.9±1.0 μA·cm^−2·hr^−1 (n=9) for non-CF epithelia and 20.0±1.3 μA·cm^−2·hr^−1 (n=9) for CF epithelia.

non-CF epithelia = test: as above; type: cell-based, human; details: 10 μM apical, n=9
Excerpt: as §1

P. aeruginosa = test: Growth in carbon-starved M9 media (O.D.); type: cell-based; details: M9 media supplemented at 100 mM
Experimental: FIGS. 5(A-G). […] A, B and C. Growth of P. aeruginosa (A), S. aureus, (B), and coagulase-negative Staphylococcus (C) were measured as O. D. M9 media alone is indicated by open triangle. Xylitol (closed circle), or succinate, mannitol, or sucrose (open circles), were added to M9 media at 100 mM as indicated. D. Nasal swabs were collected and cultured for 3 days in Lauria-Bertani media (open circles), in minimal M9 media (open squares), or in M9 media supplemented with 100 mM xylitol (closed circles). E, F and G. P. aeruginosa (E), S. aureus (F), and coagulase-negative Staphylococcus (G) were cultured in Lauria-Bertani media alone (open triangles), Lauria-Bertani media with 100 mM xylitol (closed circles), and Lauria-Bertani media containing tobramycin or levofloxacin (open circles).
To test the effect of xylitol on growth of different airway pathogens in a carbon-starved media, P. aeruginosa, S. aureus, and coagulase-negative Staphylococcus were grown overnight in Lauria-Bertani medium. The bacteria were then centrifuged and resuspended in M9 media containing either 100 mM succinate, mannitol, or sucrose, respectively, and grown overnight at 37° C. The bacteria were centrifuged and resuspended in M9 media alone. M9 media containing 100 mM xylitol, or 100 mM of the indicated metabolizable sugar, as positive control. The optical density (O.D.) was measured after 0, 1, 2, and 4 hours at 600 nm on a Beckman DU640 Spectrophotometer (Schaumburg, Ill.). To test the antibiotic effect of xylitol, P. aeruginosa, S. aureus, and coagulase-negative Staphylococcus were grown overnight in Lauria-Bertani medium. The bacteria were then centrifuged and resuspended in Lauria-Bertani media with and without 100 mM xylitol. As a positive control, antibiotics with specific activity to each of the bacteria were added to the media (40 μg/ml tobramycin or 40 μg/ml levofloxacin).

Compound	decrease in current after apical addition (CF epithelia)	decrease in current after apical addition (non-CF epithelia)	growth of P. aeruginosa (P. aeruginosa)
N=C(N)NC(=O)c1nc(Cl)c(N)nc1N [amiloride]	20.0±1.3 μA·cm^−2·hr^−1	26.9±1.0 μA·cm^−2·hr^−1	–
O=C(O)CCC(=O)O [succinate, reference compound]	–	–	allowed bacterial growth
